Data taken from patent US20250186404A1, “METHODS OF USING A (THIAZOLYL)BENZENESULFONAMIDE DERIVATIVE” (Cyteir Therapeutics, Inc., priority 2023, published 2025).

Tests used:
Assay type in all cases: cell-based
Human MCT4 = target: T1, Human MCT4 (Homo sapiens, UniProt O15427); test: Inhibition of 3BP import (rescue of viability) in MCT4-overexpressing INS-1 cells; conditions: INS-1 cells over-expressing human MCT4, rescue from LC100 3BP
T1 construct: expressed in transfected cells
T1 sequence (O15427 2-465 limits assumed): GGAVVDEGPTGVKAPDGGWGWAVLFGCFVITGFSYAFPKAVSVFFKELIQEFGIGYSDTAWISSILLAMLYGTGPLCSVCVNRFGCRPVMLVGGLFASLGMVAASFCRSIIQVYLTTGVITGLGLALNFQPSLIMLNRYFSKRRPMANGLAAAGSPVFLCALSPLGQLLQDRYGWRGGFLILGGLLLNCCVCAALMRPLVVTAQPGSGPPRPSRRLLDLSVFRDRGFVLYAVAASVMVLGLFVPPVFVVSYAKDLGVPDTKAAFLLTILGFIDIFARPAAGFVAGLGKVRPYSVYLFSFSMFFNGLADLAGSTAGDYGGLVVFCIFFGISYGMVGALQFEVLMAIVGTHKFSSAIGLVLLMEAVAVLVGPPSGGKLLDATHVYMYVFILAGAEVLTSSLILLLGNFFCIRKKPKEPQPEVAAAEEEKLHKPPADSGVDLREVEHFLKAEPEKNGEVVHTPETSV
T1 sequence (P26453 23-388 partner): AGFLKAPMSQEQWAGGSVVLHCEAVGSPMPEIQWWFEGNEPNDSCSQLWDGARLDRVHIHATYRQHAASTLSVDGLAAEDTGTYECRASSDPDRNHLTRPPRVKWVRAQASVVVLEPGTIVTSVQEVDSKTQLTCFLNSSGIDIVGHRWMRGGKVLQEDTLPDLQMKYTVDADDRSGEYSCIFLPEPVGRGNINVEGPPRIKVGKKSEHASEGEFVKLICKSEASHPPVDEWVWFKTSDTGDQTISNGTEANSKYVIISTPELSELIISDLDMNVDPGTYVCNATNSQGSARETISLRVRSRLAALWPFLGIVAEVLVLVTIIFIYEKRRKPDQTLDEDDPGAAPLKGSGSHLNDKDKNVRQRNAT
Method: (§1) Human MCT1-4 were stably expressed in INS-1 rat pancreatic islet B-cells, which are deficient in endogenous MCT expression. 3-Bromopyruvate (3BP), a highly reactive and cytotoxic monocarboxylate, can enter the INS-1 cells via the overexpressed MCT isoform, resulting in rapid cell death. However, prevention of 3BP transport into the cell by an MCT inhibitor can prevent 3BP-mediated cell death (FIG. 16).
(§2) INS-1 cells over-expressing an MCT paralog were treated with a titration of 3BP to determine the lowest concentration that results in 100% cell killing (LC100). The INS-1 cells were then pre-treated with a titration of Compound 67A before exposure to the LC100 concentration of 3BP specific for that MCT-over-expressing cell line, and rescue of cell viability was measured (FIG. 17).

human MCT1 = target: T2, human MCT1 (Homo sapiens, UniProt P53985); test: Inhibition of 3BP import (rescue of viability) in MCT1-overexpressing INS-1 cells; conditions: INS-1 cells over-expressing human MCT1, rescue from LC100 3BP
T2 construct: expressed in transfected cells
T2 sequence (P53985 1-500): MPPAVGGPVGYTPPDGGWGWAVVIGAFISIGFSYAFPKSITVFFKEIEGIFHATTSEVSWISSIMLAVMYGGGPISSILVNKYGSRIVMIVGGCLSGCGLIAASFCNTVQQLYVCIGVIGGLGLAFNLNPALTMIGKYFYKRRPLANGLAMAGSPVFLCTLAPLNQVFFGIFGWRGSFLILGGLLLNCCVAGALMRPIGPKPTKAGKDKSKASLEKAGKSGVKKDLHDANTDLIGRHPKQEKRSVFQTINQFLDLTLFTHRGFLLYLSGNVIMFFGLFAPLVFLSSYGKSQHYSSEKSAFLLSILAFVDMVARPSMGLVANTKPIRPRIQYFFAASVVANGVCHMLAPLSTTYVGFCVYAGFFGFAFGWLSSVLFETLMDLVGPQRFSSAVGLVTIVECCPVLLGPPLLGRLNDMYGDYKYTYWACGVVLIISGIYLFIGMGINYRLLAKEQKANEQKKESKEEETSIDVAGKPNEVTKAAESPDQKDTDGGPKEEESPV
T2 sequence (P26453 23-388 partner): T1 sequence (P26453 23-388 partner)
Method: as §1, §2

Human MCT3 = target: T3, Human MCT3 (Homo sapiens, UniProt O95907); test: Inhibition of 3BP import (rescue of viability) in MCT3-overexpressing INS-1 cells; conditions: INS-1 cells over-expressing human MCT3, rescue from LC100 3BP
T3 construct: expressed in transfected cells
T3 sequence (O95907 1-504): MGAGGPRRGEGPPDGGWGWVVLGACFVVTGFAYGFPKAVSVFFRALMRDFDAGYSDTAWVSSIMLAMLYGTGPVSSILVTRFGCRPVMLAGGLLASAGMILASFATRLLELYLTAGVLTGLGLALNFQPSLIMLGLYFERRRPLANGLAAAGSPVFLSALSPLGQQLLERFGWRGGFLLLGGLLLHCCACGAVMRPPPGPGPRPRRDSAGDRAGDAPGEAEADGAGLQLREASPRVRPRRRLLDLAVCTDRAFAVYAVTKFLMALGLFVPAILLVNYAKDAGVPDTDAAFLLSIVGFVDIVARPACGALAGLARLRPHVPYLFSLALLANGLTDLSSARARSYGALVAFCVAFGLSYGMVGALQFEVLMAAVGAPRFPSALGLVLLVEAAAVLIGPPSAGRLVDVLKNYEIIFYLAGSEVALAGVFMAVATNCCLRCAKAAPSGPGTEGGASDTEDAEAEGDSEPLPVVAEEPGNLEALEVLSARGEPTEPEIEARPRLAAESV
T3 sequence (P26453 23-388 partner): T1 sequence (P26453 23-388 partner)
Method: as §1, §2

Compound	IC50 (Human MCT4) [µM]	IC50 (human MCT1) [nM]	IC50 (Human MCT3) [µM]
O=C(Nc1ccccc1C(=O)O)c1cc(S(=O)(=O)c2ccccc2)ccc1Cl [BAY8002]	> 33	1000 to 10000	> 33
CC(C)OC(=O)Nc1ccc(-c2cnc([C@H]3CC[C@H](NC(=O)OC(C)C)CC3)s2)c(S(=O)(=O)NC(C)(C)C)c1 [Compound 67A]	1 to 10	100 to 1000	10 to 33
AZD3965	> 33	< 100	> 33
